The text below walks through data of paper PMC7442650, “A machine learning-based chemoproteomic approach to identify drug targets and binding sites in complex proteomes” (Nature Communications, 2020).

For orientation: EC50 means the concentration that produces a half-maximal response.

In assay [1] the target is FKBP1A (Homo sapiens, UniProt P62942).
Assay [2] addresses MAPK2K1 (MAP2K1) (Homo sapiens, UniProt Q02750). The assay can be described thus: LiP-Quant, HeLa lysate. In kind it is binding.
In assay [3] the target is XPO1 (Exportin-1) (Homo sapiens, UniProt O14980). The assay can be described thus: LiP-Quant, HeLa lysate. The format is binding. Particulars: peptide NQCEGIKK
Assay [4] concerns MAPK2K1. Details: method as in PMID 29191878. The note with it: read-out: EC50 measured with alternative methods; cited from earlier work.
Assay [5] has as its target T1, LIN7C (Homo sapiens, UniProt Q9NUP9).
T1 sequence (Q9NUP9 1-197): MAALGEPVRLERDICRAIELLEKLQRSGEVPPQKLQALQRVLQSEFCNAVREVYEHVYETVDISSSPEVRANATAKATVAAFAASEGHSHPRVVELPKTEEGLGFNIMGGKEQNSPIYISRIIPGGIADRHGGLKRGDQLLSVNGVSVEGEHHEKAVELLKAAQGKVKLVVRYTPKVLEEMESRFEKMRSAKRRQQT
Nature of the assay: LiP-Quant, HeLa lysate. The format is binding. Particulars: peptide AASEGHSHPR

Assay [6] has as its target PLEC (Plectin) (Homo sapiens, UniProt Q15149). Nature of the assay: LiP-Quant, HeLa lysate. The format is binding. The note with it: peptide QRAEAER.
In assay [7] the target is T2, NQO2 (Homo sapiens, UniProt P16083).
T2 sequence (P16083 1-231): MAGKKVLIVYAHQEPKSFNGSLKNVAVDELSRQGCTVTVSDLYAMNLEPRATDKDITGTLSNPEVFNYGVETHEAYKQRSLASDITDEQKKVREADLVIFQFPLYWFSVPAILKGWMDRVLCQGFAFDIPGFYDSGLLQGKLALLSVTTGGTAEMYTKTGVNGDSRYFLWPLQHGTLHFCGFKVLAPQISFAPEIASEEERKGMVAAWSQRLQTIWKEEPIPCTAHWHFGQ
Nature of the assay: LiP-Quant, HeLa lysate. The format is binding. Particulars: peptide EEPIPCTAHWHFGQ

The subject of assay [8] is PP2A and PP1. The note with it: cited from earlier work.
Assay [9] has as its system PP2A/B (PPP2CA;PPP2CB). Nature of the assay: LiP-Quant, HeLa lysate. The format is binding, human.
Assay [10] has as its target PPP3CA (Homo sapiens, UniProt Q08209). Nature of the assay: LiP-Quant, HeLa lysate. The format is binding. Particulars: peptide SDDELGSEEDGFDGATAAAR
Assay [11] concerns PP1. The assay can be described thus: LiP-Quant, HeLa lysate. Particulars: 16 peptides, read-out: median EC50 across LiP-Quant peptides. The format is binding, human. From the text:
Next, we focused on kinases and phosphatases as drug targets of particular pharmacological interest, given their frequent dysregulation in disease, particularly in cancer. One common issue with these classes of targets is their variable selectivity, as some of these drugs have more than one protein target in the cell, and frequently bind them with different affinities, thus it is important to characterize these subtle differences to determine the specific modes of actions.

Assay [12] deals with PPP1CA (Homo sapiens, UniProt P62136). Nature of the assay: LiP-Quant, HeLa lysate. The note with it: peptide […]. The format is binding.
The target of assay [13] is T3, SYEC (Saccharomyces cerevisiae, UniProt P46655).
T3 construct: Cell lysates from at least three independent biological replicates were aliquoted in equivalent volumes containing 100 µg of proteome sample; endogenous in cells; host or cells: S. cerevisiae (Euroscarf strains), cryo-milled lysate
Nature of the assay: LiP-Quant, S. cerevisiae lysates. The note with it: wild type yeast lysate. The format is binding. The procedure: (§1) To discriminate between these two cases, the same LiP-Quant experiment was performed with lysates where TOR signaling was impaired via a mutation in the tor1 gene and a deletion of the fpr1 gene (tor1-1 Δfpr1)[20].
(§2) Saccharomyces cerevisiae: Cell lysates from at least three independent biological replicates were aliquoted in equivalent volumes containing 100 µg of proteome sample and incubated for 10 min at 25 °C with the drug of interest. […] Samples were then heated again at 98 °C for 3 min in a thermocycler. These samples were then subjected to complete digestion in denaturing conditions as described below.

Assay [14] addresses T4, ARI1 (Saccharomyces cerevisiae, UniProt P53111).
T4 construct: Cell lysates from at least three independent biological replicates were aliquoted in equivalent volumes containing 100 µg of proteome sample; endogenous in cells; host or cells: S. cerevisiae (Euroscarf strains), cryo-milled lysate
Nature of the assay: LiP-Quant, S. cerevisiae lysates. The format is binding. Particulars: wild type yeast lysate. On the procedure:
as §1, §2

For assay [15], the target named is T5, FPR1 (FK506-binding protein 1, P20081) (Saccharomyces cerevisiae, UniProt P20081).
T5 construct: Cell lysates from at least three independent biological replicates were aliquoted in equivalent volumes containing 100 µg of proteome sample; endogenous in cells; host or cells: S. cerevisiae wild type (Euroscarf), cryo-milled lysate
T5 sequence (P20081 1-114): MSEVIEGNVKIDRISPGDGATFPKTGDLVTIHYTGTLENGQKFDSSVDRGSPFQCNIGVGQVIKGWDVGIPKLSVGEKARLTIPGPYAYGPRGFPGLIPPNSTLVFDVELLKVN
The assay can be described thus: LiP-Quant, S. cerevisiae lysates (wild type). Particulars: Yeast WT; for EC50: EC50 (nM).

Assay [16] addresses MYH9 (Myosin-9) (Homo sapiens, UniProt P35579). Nature of the assay: LiP-Quant, membrane enriched HeLa eluate.
Protocol: (§3) HeLa cells were lysed as above (lysate) however 0.3% n-dodecyl-β-D-maltoside (DDM) was added prior to lysis. […] Beads were then centrifuged at 300g for 30 s to pellet and the supernatant was aspirated. Beads were then washed six times (300g, 30 s between washes) and finally eluted in 400 µl of 0.5 M N-acetyl glucosamine (in LiP buffer without detergent) at 4 °C for 30 min. Beads were pelleted at 300g for 30 s and eluate was collected and protein was quantified by BCA test. LiP-Quant assay was performed with membrane enriched eluate in the same manner as described for standard HeLa lysate.
Assay [17] addresses T6, RBM27 (RNA-binding protein 27) (Homo sapiens, UniProt Q9P2N5).
T6 sequence (Q9P2N5 1-1060): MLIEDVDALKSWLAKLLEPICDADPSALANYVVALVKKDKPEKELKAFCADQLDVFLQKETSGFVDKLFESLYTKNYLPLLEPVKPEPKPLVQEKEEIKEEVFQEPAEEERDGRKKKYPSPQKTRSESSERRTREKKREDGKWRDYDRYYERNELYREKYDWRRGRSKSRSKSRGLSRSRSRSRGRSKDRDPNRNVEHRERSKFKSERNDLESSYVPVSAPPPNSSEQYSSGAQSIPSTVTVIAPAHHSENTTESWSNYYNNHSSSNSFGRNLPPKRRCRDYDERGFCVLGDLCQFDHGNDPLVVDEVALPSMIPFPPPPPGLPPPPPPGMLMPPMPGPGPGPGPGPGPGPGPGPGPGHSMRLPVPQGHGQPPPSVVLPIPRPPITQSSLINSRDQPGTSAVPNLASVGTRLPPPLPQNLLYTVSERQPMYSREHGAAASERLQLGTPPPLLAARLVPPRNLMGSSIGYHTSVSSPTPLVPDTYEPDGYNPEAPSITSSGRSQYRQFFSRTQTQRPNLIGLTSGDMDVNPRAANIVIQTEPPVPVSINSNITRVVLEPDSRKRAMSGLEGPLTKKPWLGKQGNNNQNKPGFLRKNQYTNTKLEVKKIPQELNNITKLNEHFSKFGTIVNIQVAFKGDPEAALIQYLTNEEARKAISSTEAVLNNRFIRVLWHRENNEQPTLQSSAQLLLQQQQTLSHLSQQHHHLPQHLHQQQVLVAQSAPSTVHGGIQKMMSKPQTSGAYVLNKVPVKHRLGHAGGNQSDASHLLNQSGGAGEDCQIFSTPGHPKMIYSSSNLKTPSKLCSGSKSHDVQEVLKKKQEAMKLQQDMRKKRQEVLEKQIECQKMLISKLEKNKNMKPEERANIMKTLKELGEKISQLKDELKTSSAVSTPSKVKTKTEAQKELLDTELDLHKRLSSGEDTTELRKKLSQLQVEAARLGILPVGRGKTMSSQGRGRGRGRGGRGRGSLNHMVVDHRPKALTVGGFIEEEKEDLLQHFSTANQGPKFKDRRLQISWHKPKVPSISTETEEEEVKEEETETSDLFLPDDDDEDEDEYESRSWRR
The assay can be described thus: LiP-Quant, membrane enriched HeLa eluate.
Protocol: as §3

The target of assay [18] is LDLR (Low-density lipoprotein receptor) (Homo sapiens, UniProt P01130). Nature of the assay: LiP-Quant, membrane enriched HeLa eluate.
Protocol: as §3
Assay [19] has as its target ATP1A1 (Sodium/potassium-transporting ATPase subunit alpha-1) (Homo sapiens, UniProt P05023). Nature of the assay: LiP-Quant, membrane enriched HeLa eluate.
Protocol: as §3
The mark [20] stands for this setting: FKBP1A peptide LVFDVELLK, Decreasing.
Setting [21] is: FKBP1A peptide VFDVELLK, Decreasing.
Where [22] appears, read: FKBP1A peptide YTGMLEDGK, Decreasing.

Each structure is given as a SMILES string. Like-named read-outs stand apart in the source and are kept apart here.

Sequence of PLEC (Plectin) (Q15149 whole entry): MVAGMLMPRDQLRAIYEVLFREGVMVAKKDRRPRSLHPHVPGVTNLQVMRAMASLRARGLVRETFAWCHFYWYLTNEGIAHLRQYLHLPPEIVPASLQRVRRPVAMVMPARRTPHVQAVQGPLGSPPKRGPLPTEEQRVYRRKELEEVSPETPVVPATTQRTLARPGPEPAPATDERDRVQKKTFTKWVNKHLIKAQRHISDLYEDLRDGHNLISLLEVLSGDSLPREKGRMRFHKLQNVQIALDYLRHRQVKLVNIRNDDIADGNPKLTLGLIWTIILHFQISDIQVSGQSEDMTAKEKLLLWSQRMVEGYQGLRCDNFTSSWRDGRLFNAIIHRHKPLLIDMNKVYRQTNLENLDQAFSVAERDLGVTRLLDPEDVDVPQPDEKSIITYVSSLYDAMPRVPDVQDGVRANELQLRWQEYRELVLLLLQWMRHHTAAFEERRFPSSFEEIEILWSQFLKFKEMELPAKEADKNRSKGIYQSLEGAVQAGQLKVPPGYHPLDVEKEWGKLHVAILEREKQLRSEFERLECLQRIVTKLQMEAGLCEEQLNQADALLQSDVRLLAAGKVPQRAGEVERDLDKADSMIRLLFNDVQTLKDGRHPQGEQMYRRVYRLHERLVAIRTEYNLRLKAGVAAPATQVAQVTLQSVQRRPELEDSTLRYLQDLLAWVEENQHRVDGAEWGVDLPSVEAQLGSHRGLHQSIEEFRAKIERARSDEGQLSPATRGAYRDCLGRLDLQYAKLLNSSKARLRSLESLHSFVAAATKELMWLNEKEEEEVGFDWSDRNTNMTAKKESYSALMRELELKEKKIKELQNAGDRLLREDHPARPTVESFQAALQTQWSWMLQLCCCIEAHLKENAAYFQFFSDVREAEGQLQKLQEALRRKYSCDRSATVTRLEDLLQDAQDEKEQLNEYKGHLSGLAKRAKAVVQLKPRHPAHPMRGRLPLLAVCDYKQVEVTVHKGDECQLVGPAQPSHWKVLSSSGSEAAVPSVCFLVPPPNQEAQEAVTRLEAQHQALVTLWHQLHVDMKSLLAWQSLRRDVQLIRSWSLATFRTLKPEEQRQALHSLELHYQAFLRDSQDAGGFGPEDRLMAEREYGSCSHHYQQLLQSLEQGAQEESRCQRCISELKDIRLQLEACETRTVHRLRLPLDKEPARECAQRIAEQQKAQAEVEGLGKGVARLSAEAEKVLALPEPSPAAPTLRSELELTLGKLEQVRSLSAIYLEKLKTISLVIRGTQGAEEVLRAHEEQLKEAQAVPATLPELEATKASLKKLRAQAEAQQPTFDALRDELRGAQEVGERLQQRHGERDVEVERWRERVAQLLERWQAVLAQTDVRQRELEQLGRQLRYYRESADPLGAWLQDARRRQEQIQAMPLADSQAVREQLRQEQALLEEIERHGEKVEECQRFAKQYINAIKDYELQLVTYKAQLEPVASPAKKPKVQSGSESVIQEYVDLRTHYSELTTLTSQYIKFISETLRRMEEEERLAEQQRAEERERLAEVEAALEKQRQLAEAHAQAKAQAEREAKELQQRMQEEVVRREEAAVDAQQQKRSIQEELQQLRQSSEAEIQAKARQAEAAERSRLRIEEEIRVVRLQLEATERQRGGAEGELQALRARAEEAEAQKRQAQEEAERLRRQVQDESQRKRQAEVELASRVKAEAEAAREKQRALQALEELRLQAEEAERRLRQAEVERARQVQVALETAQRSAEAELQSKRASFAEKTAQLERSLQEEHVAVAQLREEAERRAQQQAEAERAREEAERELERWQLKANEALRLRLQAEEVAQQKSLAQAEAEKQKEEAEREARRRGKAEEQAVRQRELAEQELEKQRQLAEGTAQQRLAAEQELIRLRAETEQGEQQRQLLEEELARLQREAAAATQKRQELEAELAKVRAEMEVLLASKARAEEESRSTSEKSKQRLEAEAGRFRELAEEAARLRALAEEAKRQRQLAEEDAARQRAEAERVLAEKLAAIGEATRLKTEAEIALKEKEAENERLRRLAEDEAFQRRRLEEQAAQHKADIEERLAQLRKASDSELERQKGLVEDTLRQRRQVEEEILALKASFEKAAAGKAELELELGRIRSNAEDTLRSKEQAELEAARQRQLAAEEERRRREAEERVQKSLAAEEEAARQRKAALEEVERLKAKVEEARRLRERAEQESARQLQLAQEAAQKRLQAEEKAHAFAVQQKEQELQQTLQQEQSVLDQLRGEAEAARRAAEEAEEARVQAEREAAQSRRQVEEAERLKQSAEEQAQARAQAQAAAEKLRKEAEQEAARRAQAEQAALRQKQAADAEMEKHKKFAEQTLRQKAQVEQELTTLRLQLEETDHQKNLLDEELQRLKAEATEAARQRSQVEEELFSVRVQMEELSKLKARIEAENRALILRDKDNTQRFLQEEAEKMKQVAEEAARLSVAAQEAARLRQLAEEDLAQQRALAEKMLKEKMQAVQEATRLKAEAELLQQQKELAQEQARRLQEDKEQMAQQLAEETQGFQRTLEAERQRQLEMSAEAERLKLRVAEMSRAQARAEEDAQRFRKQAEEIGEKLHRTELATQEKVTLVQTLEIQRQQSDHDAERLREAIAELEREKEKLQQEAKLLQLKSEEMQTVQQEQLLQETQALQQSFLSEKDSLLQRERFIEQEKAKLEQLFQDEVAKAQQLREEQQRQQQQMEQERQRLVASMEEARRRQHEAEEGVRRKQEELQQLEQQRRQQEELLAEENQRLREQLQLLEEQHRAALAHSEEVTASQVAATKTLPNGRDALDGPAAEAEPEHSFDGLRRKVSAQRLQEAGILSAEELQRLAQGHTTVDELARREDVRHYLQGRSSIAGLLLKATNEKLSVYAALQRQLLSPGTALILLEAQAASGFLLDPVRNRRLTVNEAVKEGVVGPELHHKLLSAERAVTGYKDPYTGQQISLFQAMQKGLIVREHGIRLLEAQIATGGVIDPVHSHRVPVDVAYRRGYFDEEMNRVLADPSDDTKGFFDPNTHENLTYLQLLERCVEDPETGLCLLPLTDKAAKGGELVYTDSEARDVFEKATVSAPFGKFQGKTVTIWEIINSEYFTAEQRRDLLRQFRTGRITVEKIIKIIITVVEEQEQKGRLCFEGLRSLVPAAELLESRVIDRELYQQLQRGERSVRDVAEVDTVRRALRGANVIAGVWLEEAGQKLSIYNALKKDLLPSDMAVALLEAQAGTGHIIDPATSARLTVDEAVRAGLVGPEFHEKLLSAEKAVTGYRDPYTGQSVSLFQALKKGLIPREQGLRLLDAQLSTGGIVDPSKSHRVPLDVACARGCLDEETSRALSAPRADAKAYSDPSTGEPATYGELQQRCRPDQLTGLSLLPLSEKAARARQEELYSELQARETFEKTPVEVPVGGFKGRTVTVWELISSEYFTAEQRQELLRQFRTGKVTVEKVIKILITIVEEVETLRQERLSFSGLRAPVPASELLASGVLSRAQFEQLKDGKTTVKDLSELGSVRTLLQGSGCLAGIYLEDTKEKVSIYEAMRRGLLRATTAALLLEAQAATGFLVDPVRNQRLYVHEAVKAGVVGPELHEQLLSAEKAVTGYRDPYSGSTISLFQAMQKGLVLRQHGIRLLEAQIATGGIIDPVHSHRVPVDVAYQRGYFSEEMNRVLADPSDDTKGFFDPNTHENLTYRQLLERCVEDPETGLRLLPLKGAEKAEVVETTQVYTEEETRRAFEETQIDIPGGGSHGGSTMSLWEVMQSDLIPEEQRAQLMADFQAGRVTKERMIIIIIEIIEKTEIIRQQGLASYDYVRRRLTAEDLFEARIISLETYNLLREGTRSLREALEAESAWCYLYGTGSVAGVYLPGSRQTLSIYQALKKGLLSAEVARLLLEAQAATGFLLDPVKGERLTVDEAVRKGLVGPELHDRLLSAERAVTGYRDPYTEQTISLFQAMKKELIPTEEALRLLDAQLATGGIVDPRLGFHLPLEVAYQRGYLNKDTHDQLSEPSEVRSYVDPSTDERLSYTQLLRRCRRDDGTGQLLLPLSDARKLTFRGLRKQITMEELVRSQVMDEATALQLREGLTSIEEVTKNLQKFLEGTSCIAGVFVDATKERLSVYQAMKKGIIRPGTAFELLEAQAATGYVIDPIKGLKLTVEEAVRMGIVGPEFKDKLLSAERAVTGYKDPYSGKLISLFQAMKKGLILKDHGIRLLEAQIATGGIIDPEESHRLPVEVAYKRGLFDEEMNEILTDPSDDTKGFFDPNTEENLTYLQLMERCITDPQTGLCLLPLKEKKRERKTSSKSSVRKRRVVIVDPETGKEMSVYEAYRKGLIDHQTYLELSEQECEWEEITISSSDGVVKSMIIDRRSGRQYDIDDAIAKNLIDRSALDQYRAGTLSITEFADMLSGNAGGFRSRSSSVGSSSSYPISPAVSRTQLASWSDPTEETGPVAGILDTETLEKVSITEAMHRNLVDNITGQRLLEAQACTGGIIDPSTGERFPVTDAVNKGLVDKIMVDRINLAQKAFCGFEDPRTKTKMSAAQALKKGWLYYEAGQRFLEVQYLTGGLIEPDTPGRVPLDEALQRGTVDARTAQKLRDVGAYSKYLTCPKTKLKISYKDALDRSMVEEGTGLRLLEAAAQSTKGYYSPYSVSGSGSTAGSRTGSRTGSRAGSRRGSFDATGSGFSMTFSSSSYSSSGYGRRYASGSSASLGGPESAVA
Sequence of FKBP1A (P62942 whole entry): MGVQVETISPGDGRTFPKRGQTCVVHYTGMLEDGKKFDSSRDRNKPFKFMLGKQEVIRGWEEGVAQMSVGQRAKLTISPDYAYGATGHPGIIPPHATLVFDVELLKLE
Sequence of PPP3CA (P63098 2-170, other chains not shown): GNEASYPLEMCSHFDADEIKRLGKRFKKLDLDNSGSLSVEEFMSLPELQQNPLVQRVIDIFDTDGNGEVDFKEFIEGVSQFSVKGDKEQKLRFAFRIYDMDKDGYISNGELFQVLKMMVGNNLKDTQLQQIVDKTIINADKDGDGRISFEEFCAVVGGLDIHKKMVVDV

Regarding `C=CC[C@@H]1/C=C(\C)C[C@H](C)C[C@H](OC)[C@H]2O[C@@](O)(C(=O)C(=O)N3CCCC[C@H]3C(=O)O[C@H](/C(C)=C/[C@@H]3CC[C@@H](O)[C@H](OC)C3)[C@H](C)[C@@H](O)CC1=O)[C@H](C)C[C@@H]2OC` [FK506], the “LiP Rank” value in assay [1] (setting [20]) amounted to 8; in assay [1] (setting [21]) it was 10; in assay [1] (setting [22]), 4; in [1] (FKBP1A peptide […], Decreasing), 11. The Score was determined as 1.86 in assay [1] (setting [20]); 1.73 in assay [1] (setting [21]); 3.01 in assay [1] (setting [22]); 1.72 in assay [1] (FKBP1A peptide […], Decreasing); 3.49 in assay [1] (FKBP1A peptide […], Increasing); 3.820 in assay [1] (FKBP1A peptide […], Increasing, Supplementary Data 4).

In the case of `Cn1cnc2c(F)c(Nc3ccc(Br)cc3Cl)c(C(=O)NOCCO)cc21` [Selumetinib], the LIPscore in [2] (peptide VSIAVIK (selumetinib sheet) or best peptide of the protein (Supp Data 7)) stood at 2.617; in assay [3], 2.504; in [5] it was 2.585; in assay [6], 3.316; in assay [7] it was 3.07. The LIPRank in [2] (peptide VSIAVIK (selumetinib sheet) or protein level (Supp Data 7)) is listed as 3; in assay [3], 5; in assay [5], 4; in [6], 1; in [7] it was 2. The DRC is 0.9996 in assay [3] (dose-response correlation), 0.9974 in [5] (dose-response correlation), 0.9991 in assay [6] (dose-response correlation) and 0.9666 in assay [7] (dose-response correlation). Besides, the EC50 in assay [4] is 41 nM.

For the compound `COC[C@@H]([C@H](O)[C@H](O)C(=O)NCC[C@H](C)c1nc(/C=C/C[C@@H]2O[C@]3(C[C@@H](O)[C@@H]2C)O[C@H]([C@H](C[C@H](O)[C@H](C)[C@H](O)[C@H](C)/C=C(C)/C(C)=C/C=C/C(C)=C\C#N)OC)[C@H](OP(=O)(O)O)C3(C)C)co1)N(C)C` [Calyculin A], the “EC50 ratio difference between PP2A and PP1” value in assay [8] is reported as 3.5 fold. The EC50 in assay [9] (HeLa lysate, 12 peptides, read-out: median EC50 across LiP-Quant peptides) was 18 nM; in assay [9] (peptide AHQLVMEGYNWCHDR, PPP2CA, read-out: EC50), 11.4 nM; in assay [9] (peptide NVVTIFSAPNYCYR, PPP2CA, read-out: EC50) it was 19.3 nM; in assay [9] (peptide YSFLQFDPAPR, PPP2CA, read-out: EC50) it was 18.2 nM; in assay [11], 63 nM. The “LiP Score” value in [9] (peptide AHQLVMEGYNWCHDR, PPP2CA) is reported as 4.613; in assay [9] (peptide NVVTIFSAPNYCYR, PPP2CA), 4.820; in [9] (peptide YSFLQFDPAPR, PPP2CA) it was 5.385; in assay [10], 0.782; in assay [12] it was 1.364. For the same compound, the “LiP Rank” value in [10] amounted to 2187; in [12], 196.

For the compound `CO[C@H]1C[C@@H]2CC[C@@H](C)[C@@](O)(O2)C(=O)C(=O)N2CCCC[C@H]2C(=O)O[C@H]([C@H](C)C[C@@H]2CC[C@@H](O)[C@H](OC)C2)CC(=O)[C@H](C)/C=C(\C)[C@@H](O)[C@@H](OC)C(=O)[C@H](C)C[C@H](C)/C=C/C=C/C=C/1C` [Rapamycin], the LiP-Quant score in [13] and in [14] was > 2.5 throughout. The EC50 in assay [15] (FPR1 peptide _GWDVGIPK_) amounted to 144 nM; in [15] (FPR1 peptide _TGDLVTIH_), 619 nM. Besides, the “LiP Rank” value in assay [15] (FPR1 peptide _GSPFQCNIGVGQVIK_) is listed as 1; in assay [15] (FPR1 peptide _GWDVGIPK_), 2; in assay [15] (FPR1 peptide _RISPGDGATFPK_), 4; in assay [15] (FPR1 peptide _TGDLVTIH_), 3. For the same compound, the “LiP Score” value in assay [15] (FPR1 peptide _GSPFQCNIGVGQVIK_) was 3.228; in assay [15] (FPR1 peptide _GWDVGIPK_), 3.111; in assay [15] (FPR1 peptide _RISPGDGATFPK_), 2.974.

With `C[C@@H]1O[C@@H](O[C@@H]2C=C3CC[C@@H]4[C@H](CC[C@]5(C)[C@@H](c6ccc(=O)oc6)CC[C@]45O)[C@@]3(C)CC2)[C@H](O)[C@H](O)[C@H]1O` [proscillaridin A], the EC50 in assay [16] was 31 nM; in assay [17], 17.3 nM; in assay [18] it was 27.3 nM; in assay [19] it was 16.4 nM. Also, the DRC in [16] (peptide HSQAVEELAEQLEQTKR) worked out at 0.9583; in assay [17] (peptide LSSGEDTTELR), 0.9721; in assay [18] (peptide TILEDEKR), 0.9716; in assay [19] (peptide AVAGDASESALLK), 0.9716. Further, the “LiP Rank” value in assay [16] (peptide HSQAVEELAEQLEQTKR) was 4; in assay [17] (peptide LSSGEDTTELR) it was 3; in assay [18] (peptide TILEDEKR) it was 2; in assay [19] (peptide AVAGDASESALLK), 1. The “LiP Score” value amounted to 4.317 in assay [16] (peptide HSQAVEELAEQLEQTKR), 4.331 in assay [17] (peptide LSSGEDTTELR), 4.346 in assay [18] (peptide TILEDEKR) and 4.437 in assay [19] (peptide AVAGDASESALLK).
